Legend:
arrowleaf sida = experiment: Test E postemergence; format: in vivo, Sida rhombifolia
Text: (§1) Seeds of plant species selected from corn (Zea mays), soybean (Glycine max), velvetleaf (Abutilon theophrasti), lambsquarters (Chenopodium album), wild poinsettia (Euphorbia heterophylla), palmer pigweed (Amaranthus palmeri), waterhemp (common waterhemp, Amaranthus rudis), surinam grass (Brachiaria decumbens), large (Lg) crabgrass (Digitaria sanguinalis), Brazilian crabgrass (Digitaria horizontalis), fall panicum (Panicum dichotomiflorum), giant foxtail (Setaria faberii), green foxtail (Setaria viridis), goosegrass (Eleusine indica), johnsongrass (Sorghum halepense), ragweed (common ragweed, Ambrosia elatior), barnyardgrass (Echinochloa crus-galli), sandbur (southern sandbur, Cenchrus echinatus), arrowleaf sida (Sida rhombifolia), Italian ryegrass (Lolium multiflorum), dayflower (Virginia (VA) dayflower, Commelina virginica), field bindweed (Convolvulus arvensis), morningglory (Ipomoea coccinea), nightshade (eastern black nightshade, Solanum ptycanthum), kochia (Kochia scoparia), yellow nutsedge (Cyperus esculentus), cocklebur (common cocklebur, Xanthium strumarium), smartweed (ladysthumb smartweed, and hairy beggarticks (Bidens pilosa), were planted into a silt loam soil and treated preemergence with test chemicals formulated in a non-phytotoxic solvent mixture which included a surfactant.
(§2) At the same time, plants from these crop and weed species and also horseweed (Canada horseweed, Conyza canadensis), waterhemp_RES1, (ALS & Triazine resistant common waterhemp, Amaranthus rudis), and waterhemp_RES2, (ALS & HPPD resistant common waterhemp, Amaranthus rudis) were planted in pots containing Redi-Earth® planting medium (Scotts Company, 14111 Scottslawn Road, Marysville, Ohio 43041) comprising spaghnum peat moss, vermiculite, wetting agent and starter nutrients were treated with postemergence applications of test chemicals formulated in the same manner. Plants ranged in height from 2 to 18 cm for postemergence treatments (1- to 4-leaf stage). Treated plants and controls were maintained in a greenhouse for 14 to 21 days, after which time all species were compared to controls and visually evaluated. Plant response ratings, summarized in Table E, are based on a scale of 0 to 100 where 0 is no effect and 100 is complete control. A dash (-) response means no test result.

barnyardgrass = experiment: Test E postemergence; format: in vivo, Echinochloa crus-galli
Text: as §1, §2

Brazilian crabgrass = experiment: Test E postemergence; format: in vivo, Digitaria horizontalis
Text: as §1, §2

Italian ryegrass = experiment: Test E postemergence; format: in vivo, Lolium multiflorum
Text: as §1, §2

wild poinsettia = experiment: Test E postemergence; format: in vivo, Euphorbia heterophylla
Text: as §1, §2

sedge, umbrella = experiment: Test C flooded paddy test; format: in vivo, Cyperus difformis; conditions: Flood, scale 0 to 100 (0 no effect, 100 complete control), 13 to 15 days
Summary of the method: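 Pots were flooded to 3 cm above the soil surface at treatment, compound applied directly to the paddy water, and that depth held throughout. Plants were kept in a greenhouse for 13 to 15 days, then visually rated against untreated controls.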

[1] = Sida rhombifolia, post-emergence, Postemergence, 31 g ai/ha, scale 0 to 100, read-out: Plant response rating, Arrowleaf Sida
[2] = Sida rhombifolia, post-emergence, Postemergence, 62 g ai/ha, scale 0 to 100, read-out: Plant response rating, Arrowleaf Sida
[3] = Sida rhombifolia, post-emergence, Postemergence, 125 g ai/ha, scale 0 to 100, read-out: Plant response rating, Arrowleaf Sida
[4] = Sida rhombifolia, post-emergence, postemergence, 16 g ai/ha, scale 0 to 100, 0 no effect, 100 complete control, read-out: Plant response rating, Arrowleaf Sida
[5] = Echinochloa crus-galli, post-emergence, Postemergence, 31 g ai/ha, scale 0 to 100, read-out: Plant response rating, Barnyardgrass
[6] = Echinochloa crus-galli, post-emergence, Postemergence, 62 g ai/ha, scale 0 to 100, read-out: Plant response rating, Barnyardgrass
[7] = Echinochloa crus-galli, post-emergence, Postemergence, 125 g ai/ha, scale 0 to 100, read-out: Plant response rating, Barnyardgrass
[8] = Echinochloa crus-galli, post-emergence, postemergence, 16 g ai/ha, scale 0 to 100, 0 no effect, 100 complete control, read-out: Plant response rating, Barnyardgrass
[9] = Digitaria horizontalis, post-emergence, Postemergence, 31 g ai/ha, scale 0 to 100, read-out: Plant response rating, Crabgrass, Brazil
[10] = Digitaria horizontalis, post-emergence, Postemergence, 62 g ai/ha, scale 0 to 100, read-out: Plant response rating, Crabgrass, Brazil
[11] = Digitaria horizontalis, post-emergence, Postemergence, 125 g ai/ha, scale 0 to 100, read-out: Plant response rating, Crabgrass, Brazil
[12] = Digitaria horizontalis, post-emergence, postemergence, 16 g ai/ha, scale 0 to 100, 0 no effect, 100 complete control, read-out: Plant response rating, Crabgrass, Brazil
[13] = Lolium multiflorum, post-emergence, Postemergence, 62 g ai/ha, scale 0 to 100, read-out: Plant response rating, Ryegrass, Italian
[14] = Lolium multiflorum, post-emergence, Postemergence, 125 g ai/ha, scale 0 to 100, read-out: Plant response rating, Ryegrass, Italian
[15] = Lolium multiflorum, post-emergence, postemergence, 16 g ai/ha, scale 0 to 100, 0 no effect, 100 complete control, read-out: Plant response rating, Ryegrass, Italian
[16] = Euphorbia heterophylla, post-emergence, Postemergence, 31 g ai/ha, scale 0 to 100, read-out: Plant response rating, Poinsettia, Wild
[17] = Euphorbia heterophylla, post-emergence, Postemergence, 62 g ai/ha, scale 0 to 100, read-out: Plant response rating, Poinsettia, Wild
[18] = Euphorbia heterophylla, post-emergence, Postemergence, 125 g ai/ha, scale 0 to 100, read-out: Plant response rating, Poinsettia, Wild
[19] = Euphorbia heterophylla, post-emergence, postemergence, 16 g ai/ha, scale 0 to 100, 0 no effect, 100 complete control, read-out: Plant response rating, Poinsettia, Wild
[20] = Postemergence, 31 g ai/ha, scale 0 to 100
[21] = Postemergence, 62 g ai/ha, scale 0 to 100
[22] = Postemergence, 125 g ai/ha, scale 0 to 100
[23] = postemergence, 8 g ai/ha, scale 0 to 100, 0 no effect, 100 complete control
[24] = postemergence, 16 g ai/ha, scale 0 to 100, 0 no effect, 100 complete control

SMILES: Clc1cnn(-c2ccccc2Oc2ncc(Br)cn2)c1 [Compound 5, 5-bromo-2-[2-(4-chloro-1H-pyrazol-1-yl)phenoxy]pyrimidine]
- pest or weed control at 31 g/ha (arrowleaf sida; [1]): 60%
- pest or weed control at 62 g/ha (arrowleaf sida; [2]): 70%
- pest or weed control at 125 g/ha (arrowleaf sida; [3]): 80%
- pest or weed control at 250 g/ha (arrowleaf sida; Sida rhombifolia, post-emergence, Postemergence, 250 g ai/ha, scale 0 to 100, read-out: Plant response rating, Arrowleaf Sida): 85%
- pest or weed control at 16 g/ha (arrowleaf sida; [4]): 60%
- pest or weed control at 31 g/ha (barnyardgrass; [5]): 0%
- pest or weed control at 62 g/ha (barnyardgrass; [6]): 0%
- pest or weed control at 125 g/ha (barnyardgrass; [7]): 0%
- pest or weed control at 250 g/ha (barnyardgrass; Echinochloa crus-galli, post-emergence, Postemergence, 250 g ai/ha, scale 0 to 100, read-out: Plant response rating, Barnyardgrass): 10%
- pest or weed control at 16 g/ha (barnyardgrass; [8]): 0%
- pest or weed control at 31 g/ha (Brazilian crabgrass; [9]): 5%
- pest or weed control at 62 g/ha (Brazilian crabgrass; [10]): 10%
- pest or weed control at 125 g/ha (Brazilian crabgrass; [11]): 10%
- pest or weed control at 250 g/ha (Brazilian crabgrass; Digitaria horizontalis, post-emergence, Postemergence, 250 g ai/ha, scale 0 to 100, read-out: Plant response rating, Crabgrass, Brazil): 20%
- pest or weed control at 16 g/ha (Brazilian crabgrass; [12]): 0%
- pest or weed control at 31 g/ha (Italian ryegrass; Lolium multiflorum, post-emergence, Postemergence, 31 g ai/ha, scale 0 to 100, read-out: Plant response rating, Ryegrass, Italian): 0%
- pest or weed control at 62 g/ha (Italian ryegrass; [13]): 0%
- pest or weed control at 125 g/ha (Italian ryegrass; [14]): 0%
- pest or weed control at 250 g/ha (Italian ryegrass; Lolium multiflorum, post-emergence, Postemergence, 250 g ai/ha, scale 0 to 100, read-out: Plant response rating, Ryegrass, Italian): 0%
- pest or weed control at 16 g/ha (Italian ryegrass; [15]): 0%
- pest or weed control at 31 g/ha (wild poinsettia; [16]): 20%
- pest or weed control at 62 g/ha (wild poinsettia; [17]): 30%
- pest or weed control at 125 g/ha (wild poinsettia; [18]): 35%
- pest or weed control at 250 g/ha (wild poinsettia; Euphorbia heterophylla, post-emergence, Postemergence, 250 g ai/ha, scale 0 to 100, read-out: Plant response rating, Poinsettia, Wild): 50%
- pest or weed control at 16 g/ha (wild poinsettia; [19]): 10%

SMILES: N#Cc1cccc(Oc2ncc(F)cn2)c1-n1cc(C(F)(F)F)cn1 [Compound 79, 3-[(5-fluoro-2-pyrimidinyl)oxy]-2-[4-(trifluoromethyl)-1H-pyrazol-1-yl]benzonitrile]
- pest or weed control at 31 g/ha (arrowleaf sida; [1]): 75%
- pest or weed control at 62 g/ha (arrowleaf sida; [2]): 85%
- pest or weed control at 125 g/ha (arrowleaf sida; [3]): 98%
- pest or weed control at 16 g/ha (arrowleaf sida; [4]): 65%
- pest or weed control at 31 g/ha (barnyardgrass; [5]): 0%
- pest or weed control at 62 g/ha (barnyardgrass; [6]): 10%
- pest or weed control at 125 g/ha (barnyardgrass; [7]): 20%
- pest or weed control at 16 g/ha (barnyardgrass; [8]): 0%
- pest or weed control at 31 g/ha (Brazilian crabgrass; [9]): 10%
- pest or weed control at 62 g/ha (Brazilian crabgrass; [10]): 20%
- pest or weed control at 125 g/ha (Brazilian crabgrass; [11]): 30%
- pest or weed control at 16 g/ha (Brazilian crabgrass; [12]): 0%
- pest or weed control at 62 g/ha (Italian ryegrass; [13]): 0%
- pest or weed control at 125 g/ha (Italian ryegrass; [14]): 0%
- pest or weed control at 16 g/ha (Italian ryegrass; [15]): 0%
- pest or weed control at 31 g/ha (wild poinsettia; [16]): 40%
- pest or weed control at 62 g/ha (wild poinsettia; [17]): 50%
- pest or weed control at 125 g/ha (wild poinsettia; [18]): 60%
- pest or weed control at 16 g/ha (wild poinsettia; [19]): 40%

SMILES: Clc1cnc(Oc2ccccc2-n2cc(Br)nn2)nc1 [Compound 223]
- Plant response rating, Arrowleaf Sida (arrowleaf sida; [20]): 70
- Plant response rating, Arrowleaf Sida (arrowleaf sida; [21]): 80
- Plant response rating, Arrowleaf Sida (arrowleaf sida; [22]): 90
- Plant response rating, Arrowleaf Sida (arrowleaf sida; [23]): 50
- Plant response rating, Arrowleaf Sida (arrowleaf sida; [24]): 60
- Plant response rating, Barnyardgrass (barnyardgrass; [20]): 0
- Plant response rating, Barnyardgrass (barnyardgrass; [21]): 0
- Plant response rating, Barnyardgrass (barnyardgrass; [22]): 0
- Plant response rating, Barnyardgrass (barnyardgrass; [23]): 0
- Plant response rating, Barnyardgrass (barnyardgrass; [24]): 0
- Plant response rating, Crabgrass, Brazil (Brazilian crabgrass; [20]): 10
- Plant response rating, Crabgrass, Brazil (Brazilian crabgrass; [21]): 10
- Plant response rating, Crabgrass, Brazil (Brazilian crabgrass; [22]): 20
- Plant response rating, Crabgrass, Brazil (Brazilian crabgrass; [23]): 0
- Plant response rating, Crabgrass, Brazil (Brazilian crabgrass; [24]): 0
- Plant response rating, Ryegrass, Italian (Italian ryegrass; [20]): 0
- Plant response rating, Ryegrass, Italian (Italian ryegrass; [21]): 0
- Plant response rating, Ryegrass, Italian (Italian ryegrass; [22]): 0
- Plant response rating, Ryegrass, Italian (Italian ryegrass; [23]): 0
- Plant response rating, Ryegrass, Italian (Italian ryegrass; [24]): 0
- Plant response rating, Poinsettia, Wild (wild poinsettia; [20]): 40
- Plant response rating, Poinsettia, Wild (wild poinsettia; [21]): 50
- Plant response rating, Poinsettia, Wild (wild poinsettia; [22]): 60
- Plant response rating, Poinsettia, Wild (wild poinsettia; [23]): 30
- Plant response rating, Poinsettia, Wild (wild poinsettia; [24]): 30

SMILES: Fc1cccc(Oc2ncc(Cl)cn2)c1-n1cc(Cl)cn1 [Compound 177]
- Plant response rating, Sedge, Umbrella (sedge, umbrella; 31 g ai/ha): 0
- Plant response rating, Sedge, Umbrella (sedge, umbrella; 62 g ai/ha): 0
- Plant response rating, Sedge, Umbrella (sedge, umbrella; 125 g ai/ha): 60
- Plant response rating, Sedge, Umbrella (sedge, umbrella; 250 g ai/ha): 85

SMILES: N#Cc1cccc(Oc2ncc(Cl)cn2)c1-n1cc(OC(F)F)cn1 [Compound 97]
- Plant response rating, Sedge, Umbrella (sedge, umbrella; 31 g ai/ha): 60
- Plant response rating, Sedge, Umbrella (sedge, umbrella; 62 g ai/ha): 60
- Plant response rating, Sedge, Umbrella (sedge, umbrella; 125 g ai/ha): 75
- Plant response rating, Sedge, Umbrella (sedge, umbrella; 250 g ai/ha): 80

SMILES: FC(F)c1cnn(-c2ccccc2Oc2ncc(Cl)cn2)c1 [Compound 80, 5-chloro-2-[2-[4-(difluoromethyl)-1H-pyrazol-1-yl]phenoxy]pyrimidine]
- Plant response rating, Sedge, Umbrella (sedge, umbrella; 250 g ai/ha): 0
- Plant response rating, Sedge, Umbrella (sedge, umbrella; 500 g ai/ha): 0
- Plant response rating, Sedge, Umbrella (sedge, umbrella; 1000 g ai/ha): 60
- Plant response rating, Sedge, Umbrella (sedge, umbrella; 2000 g ai/ha): 85

SMILES: FC(F)c1cnn(-c2c(Cl)cccc2Oc2ncc(Cl)cn2)c1 [Compound 192]
- Plant response rating, Sedge, Umbrella (sedge, umbrella; 31 g ai/ha): 0
- Plant response rating, Sedge, Umbrella (sedge, umbrella; 62 g ai/ha): 0
- Plant response rating, Sedge, Umbrella (sedge, umbrella; 125 g ai/ha): 50
- Plant response rating, Sedge, Umbrella (sedge, umbrella; 250 g ai/ha): 85

SMILES: Fc1cccc(Oc2ncc(Cl)cn2)c1-n1cc(C(F)F)nn1 [Compound 141, 5-chloro-2-[2-[4-(difluoromethyl)-1H-1,2,3-triazol-1-yl]-3-fluorophenoxy]pyrimidine]
- Plant response rating, Sedge, Umbrella (sedge, umbrella; 31 g ai/ha): 0
- Plant response rating, Sedge, Umbrella (sedge, umbrella; 62 g ai/ha): 40
- Plant response rating, Sedge, Umbrella (sedge, umbrella; 125 g ai/ha): 75
- Plant response rating, Sedge, Umbrella (sedge, umbrella; 250 g ai/ha): 100
